US20160038597A9, “CARRIER THAT TARGETS FUCOSYLATED MOLECULE-PRODUCING CELLS” (priority 2010, published 2016)

Columns and labels:
[1] = test system: PANC-1; assay: 14C-fucose binding to cells; details: 14C-fucose 0-200 nM, 4° C., 1 hr
Description: (§1) Binding of fucose (fucose refers to L-fucose, unless otherwise stated) to the fucosylated sugar chain high-producing cell line ASPC-1 and fucosylated sugar chain low-producing cell line PANC-1 was investigated using radiolabeled fucose.
(§2) In a 12-well culture plate, 1×10^5 cells were seeded and cultured overnight, and ^14C-fucose (specific activity: 55 mCi/mmol) diluted with BSA-PBS at a concentration of 0-200 nM was added to the cells and cultured at 4° C. for 1 hr. The cells were washed with cold BSA-PBS, lysed by 1% Triton X100/PBS-0.25% trypsin, and the radioactivity of the ^14C-fucose bound to the cell membrane was measured (FIGS. 3 and 4).

[2] = test system: ASPC-1; assay: 14C-fucose binding to cells
Description: as §1, §2
In another experiment, in a 12-well culture plate, 2×10^5 cells were seeded and cultured overnight, 10 nmol of ^14C-fucose (specific activity: 55 mCi/mmol) were added to the cells either singly or together with 1 pmol of fucose, and cultured at 4° C. for 1, 3, or 24 hr. The cells under each condition were washed with cold BSA-PBS, lysed by 1% Triton X100/PBS-0.25% trypsin, and the radioactivity of the ^14C-fucose was measured (FIG. 5).

## C[C@H](O)[C@@H](O)[C@@H](O)[C@H](O)C=O [fucose, L-fucose]
[1]
  binding of fucose to cells: binds to ASPC-1 and PANC-1 via a receptor-like mechanism
[2]; 10 nmol 14C-fucose with non-labeled fucose, 4° C., 1, 3 or 24 hr
  binding of 14C-fucose in competition with excessive non-labeled fucose: inhibited
[2]; 14C-fucose 0-200 nM, 4° C., 1 hr, compared with PANC-1
  binding of fucose to cells (affinity): affinity is higher
